The values that follow come from patent US4310660A, “Lincomycin compounds” (The Upjohn Company, priority 1980, dated 1982).

The test system of one experiment is Staphylococcus aureus. Briefly: MIC vs. aerobic bacteria, microplate broth-dilution (BHI). Conditions: Staphylococcus aureus. The class given is cell-based.
The next experiment deals with Diplococcus pneumoniae. The description is as above. Conditions: Streptococcus pneumoniae. Type of experiment: cell-based. The procedure:
(§1) The Minimal Inhibitory Concentration (MIC's) of both compounds Vs. aerobic bacteria is determined using a standard microplate broth-dilution method. Brain Heart Infusion (BHI-Difco) broth medium is used, and the plates are incubated at 37° C. for 20 hrs.

A further experiment concerns Escherichia coli. The description is as above. Type of experiment: cell-based. The procedure:
as §1

In the next experiment the test system is Klebsiella pneumoniae. The experiment is described as above. Type of experiment: cell-based. To be noted: Klebsiella pneumoniae. How it is done:
as §1

Another experiment has as its system Proteus vulgaris. The experiment is described as above. The class given is cell-based. To be noted: Proteus vulgaris, UC93, 20 h, P. vulgaris UC 93; read-out: MIC. The procedure: as §1
The test system of a further experiment is Pseudomonas aeruginosa. The description is as above. Type of experiment: cell-based. The procedure:
as §1

Experiment [1] deals with Salmonella schottmuelleri. Described as above. Type of experiment: cell-based. Conditions: Salmonella. How it is done: as §1
A further experiment has as its system Streptococcus faecalis. The description is as above. The class given is cell-based. Conditions: Enterococcus faecalis. The procedure:
as §1

Experiment [2] relates to S. hemolyticus. Briefly: MIC, test procedure as given supra. To be noted: UC152, 20 h, S. hemolyticus UC 152; read-out: MIC. The class given is cell-based. How it is done:
as §1
(§2) The Minimal Inhibitory Concentration (MIC's) of a representative number of the compounds prepared in Examples 2-8 follows. The test procedure is as given supra.

The subject of experiment [3] is S. lutea. Description: MIC, test procedure as given supra. Type of experiment: cell-based. To be noted: Micrococcus luteus, UC130, 20 h; S. lutea UC 130. How it is done: as §1, §2
In experiment [4] the test system is S. lutea. Description: Qual. Assay vs. S. lutea. Type of experiment: cell-based. To be noted: qualitative.
The next experiment concerns Streptococcus pyogenes. Briefly: MIC vs. aerobic bacteria, microplate broth-dilution (BHI). Type of experiment: cell-based. Conditions: UC152, UC 152, read-out: Minimal Inhibitory Concentration (MIC). How it is done: as §1
In the next experiment the test system is S. aureus. Briefly: Mouse Protection Test. The class given is in vivo. Conditions: for ED50: Staphylococcus aureus, read-out: Median Protective Dose (CD50). The source says:
(§3) Immediately before use, the suspensions were thawed quickly and properly diluted. Infection was via the intrapertioneal route.
(§4) Treatment of the infected groups was begun immediately and continued once per day for 4 days (first 24 hr period=1). Groups of untreated mice served as virulence controls for the culture.
(§5) Seven days after the treatment regimen was begun the surviving animals were sacrificed and the median protective dose of the antibiotic calculated on the basis of mortality rates in the treatment groups. The median protective dose and its 95% confidence interval were calculated according to the method of Spearmen & Karber as programmed on a 360 digital computer.

Experiment [5] relates to S. hemolyticus. Description: Mouse Protection Test. The class given is in vivo. To be noted: for ED50: 168 h, read-out: Median Protective Dose (CD50).
From the text: as §3, §4, §5

The next experiment deals with D. pneumoniae III. Briefly: Mouse Protection Test. Conditions: for ED50: Streptococcus pneumoniae, 168 h, read-out: Median Protective Dose (CD50); for ED50 / Median Protective Dose (CD50): strain MPI III, two experiments listed; for Median Protective Dose (CD50): 10080 min, listed as U-60970E . Hcl. Type of experiment: in vivo.
From the text: as §3, §4, §5
(§6) U-60,970E was also tested in vivo in standard laboratory mice which were experimentally infected with bacteria. The test was conducted in comparison with U-57,930E.

The next experiment deals with D. pneumoniae I. Description: Mouse Protection Test. Type of experiment: in vivo. Conditions: for ED50: Streptococcus pneumoniae, 168 h, strain Felton I, read-out: Median Protective Dose (CD50).
From the text: as §3, §4, §5, §6

Another experiment deals with bacteria. Briefly: antibacterial activity (general statement).
Where [6] appears, read: UC76, S. aureus UC 76, read-out: Minimal Inhibitory Concentration (MIC).
Where [7] appears, read: UC570, S. aureus UC 570, read-out: Minimal Inhibitory Concentration (MIC).
Where [8] appears, read: UC746, S. aureus UC 746, read-out: Minimal Inhibitory Concentration (MIC).
[9] abbreviates: UC41, Diplococcus pneumoniae I, UC 41, read-out: Minimal Inhibitory Concentration (MIC).
The mark [10] stands for this setting: UC45, UC 45, read-out: Minimal Inhibitory Concentration (MIC).
The mark [11] stands for this setting: UC58, UC 58, read-out: Minimal Inhibitory Concentration (MIC).
[12] abbreviates: UC95, UC 95, read-out: Minimal Inhibitory Concentration (MIC).
[13] abbreviates: UC126, UC 126, read-out: Minimal Inhibitory Concentration (MIC).
Setting [14] is: UC694, UC 694, read-out: Minimal Inhibitory Concentration (MIC).

In brackets after ≈: the same amount, converted by molar mass. Read-outs that look alike come from different tables or passages of the source.

Consider `CCc1ccnc(C(=O)N[C@@H]([C@H]2O[C@H](SC)[C@H](O)[C@@H](O)[C@H]2O)[C@H](C)O)c1` [U-45,659], for which the MIC was greater than 1000 µg/mL with Staphylococcus aureus (UC76, 20 h, S. aureus UC 76, read-out: MIC); greater than 1000 µg/mL in the experiment on Staphylococcus aureus (UC570, 20 h, S. aureus UC 570, read-out: MIC); 1000 µg/mL (≈ 2590 µM) with Staphylococcus aureus (UC746, 20 h, S. aureus UC 746, read-out: MIC); 500 µg/mL (≈ 1290 µM) with Diplococcus pneumoniae (UC41, 20 h, D. pneumoniae UC 41, read-out: MIC); greater than 1000 µg/mL in the experiment on Escherichia coli (UC45, 20 h, E. coli UC 45, read-out: MIC); 1000 µg/mL (≈ 2590 µM) with Klebsiella pneumoniae (UC58, 20 h, K. pneumoniae UC 58, read-out: MIC). The MIC with Proteus vulgaris was greater than 1000 µg/mL; in the experiment with Pseudomonas aeruginosa (UC95, 20 h, Ps. aeruginosa UC 95, read-out: MIC), 1000 µg/mL (≈ 2590 µM); in experiment [1] (UC126, 20 h, S. schottmuelleri UC 126), greater than 1000 µg/mL; in the experiment with Streptococcus faecalis (UC694, 20 h, St. faecalis UC 694, read-out: MIC) it was greater than 1000 µg/mL; in the experiment on S. hemolyticus [2], 500 µg/mL (≈ 1290 µM); with S. lutea [3] it was 1000 µg/mL (≈ 2590 µM).
Turning to `CS[C@H]1O[C@H]([C@H](NC(=O)c2cccnc2)[C@H](C)Cl)[C@H](O)[C@H](O)[C@H]1O` [U-46,138], in the experiment with S. lutea [4], the “Qual. Assay vs. S. lutea” value is “Inactive”.
Turning to `CCCC[C@@H]1CCN[C@H](C(=O)N[C@@H]([C@H]2O[C@H](SC)[C@H](O)[C@@H](O)[C@H]2O)[C@H](C)Cl)C1` [U-60,970E, 4-Cis-n-Butyl-L-Pipecolic Acid Amide of 7-Cl-MTL], the MIC in the experiment on Staphylococcus aureus (setting [6]) was found to be 0.125 µg/mL (≈ 0.285 µM); in the experiment on Staphylococcus aureus (setting [7]), 0.25 µg/mL (≈ 0.569 µM); in the experiment with Staphylococcus aureus (setting [8]), 0.062 µg/mL (≈ 0.141 µM); in the experiment with Diplococcus pneumoniae (setting [9]), 0.016 µg/mL (≈ 0.0364 µM); in the experiment with Escherichia coli (setting [10]), 31.2 µg/mL (≈ 71.1 µM); in the experiment on Klebsiella pneumoniae (setting [11]) it was 7.8 µg/mL (≈ 17.8 µM). The MIC in the experiment with Pseudomonas aeruginosa (setting [12]) was greater than 125 µg/mL; in [1] (setting [13]) it was 31.2 µg/mL (≈ 71.1 µM); in the experiment with Streptococcus faecalis (setting [14]), 0.25 µg/mL (≈ 0.569 µM); in the experiment on Streptococcus pyogenes, 0.008 µg/mL (≈ 0.0182 µM). For the same compound, the ED50 with S. aureus (UC76, 168 h, strain UC 76, oral) is 8.12 mg/kg; with S. aureus (UC76, sc, 168 h, strain UC 76, subcutaneous), 1.32 mg/kg; in the experiment on S. hemolyticus [5] (strain C203, oral), 2.18 mg/kg; in the experiment with S. hemolyticus [5] (sc, strain C203, subcutaneous) it was 0.35 mg/kg; with D. pneumoniae III (po, oral), 3.13 mg/kg; with D. pneumoniae III (sc, subcutaneous), 0.44 mg/kg. Moreover, the ED50 with D. pneumoniae I (oral) came out at 4.42 mg/kg; in the experiment on D. pneumoniae I (sc, subcutaneous), 0.67 mg/kg. Also, the “in vivo activity compared with U-57,930E” value with S. aureus (infected mice) is reported as “essentially the same activity”; in the experiment with S. hemolyticus [5] (infected mice) it was “essentially the same activity”; in the experiment with D. pneumoniae III (infected mice) it was “significantly more active”; in the experiment on D. pneumoniae I (infected mice), “significantly more active”. In addition, the “Median Protective Dose (CD50)” value was 4.12 (2.93-5.81) mg/kg with D. pneumoniae III (oral) and 0.29 (0.21-0.41) mg/kg in the experiment with D. pneumoniae III (subcutaneous).
`CC[C@H]1CCN[C@@H](C(=O)N[C@@H]([C@H]2O[C@H](SC)[C@H](O)[C@@H](O)[C@H]2O)[C@H](C)Cl)C1` [V A]: the MIC in the experiment with Staphylococcus aureus (setting [6]) is 250 µg/mL (≈ 608 µM); in the experiment with Staphylococcus aureus (setting [7]), 1000 µg/mL (≈ 2430 µM); in the experiment on Staphylococcus aureus (setting [8]), 125 µg/mL (≈ 304 µM); in the experiment on Diplococcus pneumoniae (setting [9]), 62.5 µg/mL (≈ 152 µM); with Escherichia coli (setting [10]), greater than 1000 µg/mL; in the experiment with Klebsiella pneumoniae (setting [11]), greater than 1000 µg/mL. Moreover, the MIC with Pseudomonas aeruginosa (setting [12]) was greater than 1000 µg/mL; in experiment [1] (setting [13]) it was greater than 1000 µg/mL; with Streptococcus faecalis (setting [14]) it was greater than 1000 µg/mL; in the experiment on Streptococcus pyogenes, 62.5 µg/mL (≈ 152 µM). Further, the “antibacterial potency compared with related form” value in the experiment on bacteria was “not as potent an antibacterial agent as the L-cis compound”.
